These results are taken from ChEMBL document CHEMBL1137511, “Identification of a series of novel derivatives as potent HCV inhibitors by a ligand-based virtual screening optimized procedure” (Bioorg Med Chem, 2007).

A short description of this experiment: Inhibition of HCV genotype 1 polymerase. Set-up: species or system Hepacivirus hominis.
Consider `CC(C)CCn1c(=O)c(C2=NS(=O)(=O)c3cc(NS(=O)(=O)NCCC(N)=O)ccc3N2)c(O)c2cccnc21`, for which the midpoint of inhibition, the IC50, lay at 20 nM.
The same measure for `CC(C)CCn1c(=O)c(C2=NS(=O)(=O)c3cc(NS(=O)(=O)NC(=O)OCc4ccccc4)ccc3N2)c(O)c2cccnc21`: 58 nM; for `CC(C)CCn1c(=O)c(C2=NS(=O)(=O)c3cc(NS(=O)(=O)NC(=O)OCCN)ccc3N2)c(O)c2cccnc21`: 21 nM.
`Cc1ccc2c(c1)S(=O)(=O)NC(c1c(O)c3cccnc3n(Cc3ccccc3)c1=O)=N2` returned an IC50 of 25700 nM.
With `COc1ccc2c(c1)S(=O)(=O)NC(c1c(O)c3cccnc3n(Cc3ccccc3)c1=O)=N2`, the IC50 was 8310 nM.
Compound `O=c1c(C2=NS(=O)(=O)c3ccccc3N2)c(O)c2ccccc2n1NCC1CCCC1` gave an IC50 of 747 nM.
`CC(C)CCn1c(=O)c(C2=NS(=O)(=O)c3cc(NS(=O)(=O)NC4CCCC4)ccc3N2)c(O)c2cccnc21` registered an IC50 of 39 nM.
The same measure for `CCCCNn1c(=O)c(C2=NS(=O)(=O)c3ccccc3N2)c(O)c2ccccc21`: 951 nM; for `COC(=O)c1ccccc1NS(=O)(=O)Nc1ccc2c(c1)S(=O)(=O)N=C(c1c(O)c3cccnc3n(CCC(C)C)c1=O)N2`: 129 nM; for `CC(C)CCn1c(=O)c(C2=NS(=O)(=O)c3cc(NS(=O)(=O)NC(=O)OCCC#N)ccc3N2)c(O)c2cccnc21`: 35 nM.
As for `CNC(=O)COc1ccc2c(c1)S(=O)(=O)NC(c1c(O)c3cccnc3n(CCC(C)C)c1=O)=N2`, the IC50 came out at 180 nM.
`CCCCS(=O)(=O)Nc1ccc2c(c1)S(=O)(=O)NC(c1c(O)c3cccnc3n(CCC(C)C)c1=O)=N2` registered an IC50 of 22 nM.
The value for `CC(C)CCn1c(=O)c(C2=NS(=O)(=O)c3cc(NS(=O)(=O)NCCO)ccc3N2)c(O)c2cccnc21` was 107 nM; that for `O=c1c(C2=NS(=O)(=O)c3ccccc3N2)c(O)c2ccccc2n1NC1CCCCC1` was 356 nM.
On to `CC(C)CCn1c(=O)c(C2=NS(=O)(=O)c3cc(NS(=O)(=O)Nc4ccc(C(=O)O)cc4)ccc3N2)c(O)c2cccnc21`, for which half-maximal inhibition (IC50) required 20 nM.
For `CC(C)CCn1c(=O)c(C2=NS(=O)(=O)c3cc(NS(=O)(=O)N4CCCC4)ccc3N2)c(O)c2cccnc21`, the IC50 came out at 27 nM.
The same measure for `CC(C)CCn1c(=O)c(C2=NS(=O)(=O)c3cc(NS(=O)(=O)NCc4ccccc4)ccc3N2)c(O)c2cccnc21`: 5.5 nM.
The value for `COc1cccc(CNS(=O)(=O)Nc2ccc3c(c2)S(=O)(=O)N=C(c2c(O)c4cccnc4n(CCC(C)C)c2=O)N3)c1` was 15 nM.
The same measure for `CC(C)CCn1c(=O)c(C2=NS(=O)(=O)c3cc(O)ccc3N2)c(O)c2cccnc21`: 390 nM; for `O=c1c(C2=NS(=O)(=O)c3ccccc3N2)c(O)c2ccccc2n1NCC1=CCOC=C1`: 4630 nM; for `CC(C)CCNn1c(=O)c(C2=NS(=O)(=O)c3ccccc3N2)c(O)c2ccccc21`: 629 nM.
`CC(C)CCn1c(=O)c(C2=NS(=O)(=O)c3cc(NS(N)(=O)=O)ccc3N2)c(O)c2cccnc21` showed an IC50 of 9 nM.
The same measure for `CC(C)(C)CCNn1c(=O)c(C2=NS(=O)(=O)c3ccccc3N2)c(O)c2ccccc21`: 411 nM; for `CC(C)CCn1c(=O)c(C2=NS(=O)(=O)c3ccccc3N2)c(O)c2cccnc21`: 810 nM.
The value for `COc1ccc2c(c1)S(=O)(=O)N=C(c1c(O)c3cccnc3n(CCC(C)C)c1=O)N2` was 1130 nM; that for `CC(C)CCn1c(=O)c(C2=NS(=O)(=O)c3cc(OCC(=O)N(C)C)ccc3N2)c(O)c2cccnc21` was 934 nM.
The same measure for `COC(=O)c1ccc(NS(=O)(=O)Nc2ccc3c(c2)S(=O)(=O)N=C(c2c(O)c4cccnc4n(CCC(C)C)c2=O)N3)cc1`: 48 nM; for `CC(C)CCn1c(=O)c(C2=NS(=O)(=O)c3cc(NS(=O)(=O)NCCc4ccccc4)ccc3N2)c(O)c2cccnc21`: 18 nM; for `O=c1c(C2=NS(=O)(=O)c3ccccc3N2)c(O)c2ccccc2n1NCC1CC1`: 285 nM.
As to `CC(C)Nn1c(=O)c(C2=NS(=O)(=O)c3ccccc3N2)c(O)c2ccccc21`, it took 6350 nM to reach half-maximal inhibition (IC50).

Usually IC50 stands for the midpoint of a concentration-inhibition curve.
